From US12553882B2, “Use of PAK4 and CRTC1 for treatment or diagnosis of brain degenerative disease” (CHUNGBUK NATIONAL UNIVERSITY INDUSTRY-ACADEMIC COOPERATION …, priority 2017, dated 2026)

Assays:
[1] = test system: TH-positive DA neurons; assay: PF-3758309 stereotaxic injection into the SN, analysis of TH-positive neurons and fibers; format: in vivo, rat; conditions: PF-3758309 injected into the SN (substantia nigra)
Description: Mice were anesthetized with chloral hydrate (360 mg/kg, intraperitoneal [i.p.] injection) and then placed in a stereotaxic instrument (Kopf Instruments, Tujunga, CA, USA). The injection site coordinates in the right SN were 5.3 mm AP, 2.0 mm ML and 7.6 mm DV, from the bregma. Then, PF-3758309 (0.5 μg) was injected using a Hamilton syringe needle (33-gauge needle). In this case, the flow rate of the injection solution (2 ul) was allowed to be at 0.25 ul/min. After the injection, the syringe needle was maintained as it is for 5 more minutes to suppress the reflux of the solution. […]
Human brain tissue slices embedded with paraffin were deparaffinized with xylene. […] Samples were reacted with Alexa 488- or Alexa 594-conjugated secondary antibodies for fluorescence microscopic analysis. […] For Nissl-staining, SN tissue was fixed on a gelatin-coated slide and dried at room temperature for 1 hour, stained with 0.5% cresyl violet, dehydrated, covered with a cuff slip and analyzed using a bright field microscopy (Nikon).
The unbiased stereological analysis of the total number of TH+ neurons was performed using an optical fractionator method and Stereo Investigator software (MBF Bioscience, Williston, VT). The method is an assay which is not influenced by reference volume (SNpc) or size of counted elements (neurons). The total number of neurons was calculated by Optical Fractionator Equation. […]

[2] = test system: rat PAK4; assay: Knock-down of PAK4 by lentiviral shRNA; format: in vivo; conditions: lentiviral rat PAK4 hCMV-TurboGFP shRNA
Excerpt: Lentiviral rat PAK4 hCMV-TurboGFP shRNAs were purchased from Dharmacon and Open Biosystems. […] In this case, lentiviral shRNA control particles (#S-005000-01) were used as a control.
Protein extracts were obtained by conventional protein extraction methods, and immunoblots were visualized using HRP-conjugated secondary antibodies to IgG and chemiluminescent substrate (SuperSignal Ultra; Pierce). For quantitative analysis of protein levels, each band density of the immunoblots was quantitatively analyzed using the National Institutes of Health ImageJ software (National institutes of Health).
As a method for checking the action of PAK4 in Parkinson's disease, the present inventors injected a lent viral green fluorescent protein (GFP) small hairpin control (shCtrl) or lentiviral-GFP-shPAK4 construct into the right striatum of the rat brain to analyze the role of PAK4 in Parkinson's disease.

[3] = test system: rat CRTC1; assay: Knock-down of CRTC1 by lentiviral shRNA, 6-OHDA rat model; format: in vivo; conditions: lentiviral rat CRTC1 hCMV-TurboGFP shRNA

Compound	knock-down of the expression of PAK4 [2]	knock-down of the expression of CRTC1 [3]	other results
Cc1nc(Nc2[nH]nc3c2CN(C(=O)N[C@H](CN(C)C)c2ccccc2)C3(C)C)c2sccc2n1 [PF-3758309]	–	–	TH-positive DA neurons [1]: decreased
SH-082018-01: lentiviral rat PAK4 shRNA, TTACGCAAGTCCATCTTCT, Dharmacon and Open Biosystems	effectively knocked down	–	–
SH-082018-02: lentiviral rat PAK4 shRNA, TGATCGAAGCCTGTGTGTA, Dharmacon and Open Biosystems	effectively knocked down	–	–
SH-111776-01: lentiviral rat CRTC1 shRNA, CACGATATACTCTGTCCAC	–	effectively knocked down	–
SH-111776-02: lentiviral rat CRTC1 shRNA, TCGCTAAATTTCCGCGGAT	–	effectively knocked down	–
